Measurements from patent US20160090556A1, “PRODUCTS COMPRISING MALODOR REDUCTION MATERIALS” (The Procter & Gamble Company, priority 2014, published 2016).
Like-named read-outs stand apart in the source and are kept apart here.

Key:
[1] = Liquid dish neat product liquid-air partition coefficient; type: physicochemical
[2] = Blocker Index (BI) assigned by perfumers/expert graders on isovaleric acid swatches; set-up: species or system human; key: BI odor strength 0 (lowest, clean swatch) to 3 (highest)
Text: (§1) Blocker materials suitable for use in consumer products of the present invention are chosen for their ability to decrease malodor, while not interfering with perception of a fragrance. Material selection is done by assigning two indices to a test sample material from two reference scales in order to rank odor strengths. The two reference scales are the Fragrance Fidelity Index (FFI) scale and the Blocker Index (BI) scale. The FFI ranks the ability of the test sample material to impart a perceivable odor which could cause interference when combined with another fragrance and the BI ranks the ability of the test sample material to reduce malodor perception. The two methods for assigning the indices to a test sample on the FFI and the BI reference scales are given below.
(§2) The first step in the method for assigning a BI to a test sample material on the BI reference scale is to create the BI reference swatches. […] Fabric swatches for this test are white knit polycotton (4 inch×4 inch) swatches from EMC ordered as PC 50/50. The supplier is instructed to strip the swatches first, stripping involves washing twice with a fragrance-free detergent and rinsing three times.
The BI scale contains one clean swatch with no malodor applied. […] These solutions are pipetted to the middle of the swatches. […] After drying for 30 minutes in a vented hood, the swatches are wrapped in aluminum foil to prevent odor contamination to the treated swatch. A clean untreated swatch is also included as the lowest anchor point of reference for malodor strength on the BI scale. The BI reference scale swatches should be used within 0.5 to 12 hours and discarded after 12 hours. The swatches are used as scale anchor points when graders evaluate a test sample(s) and are assigned a Blocker Index (BI) as show in Table 12.
The perfumer/expert grader is asked to rank order swatches according to a scale between 0 and 3.
The reference swatches represent the 0, 1, 2, and 3 BIs on the BI reference scale, Table 12. The expert grader should familiarizes him/herself with the strength of the odor on the BI reference swatches by sniffing each one starting at 0 (the lowest odor strength) and ending at 3 (the highest odor strength). This should be done prior to evaluating the swatch treated with the test material.
To evaluate the BI, the test material is applied to a malodorous swatch to determine how well the test material blocks the malodor. […] After drying the malodorous swatch a known concentration of test material solution, between 1 ppm and 100 ppm is pipetted onto the malodorous swatch. […] It is sometimes necessary to evaluate several levels of the test material between about 1 and about 100 ppm to determine the BI.
At least two perfumers/expert graders are used to assign the BI to the test sample. […] The test sample swatch is assigned a BI at or between numbers on the BI in table.

[3] = Fragrance Fidelity Index (FFI) assigned by perfumers/expert graders on fabric swatches; set-up: species or system human; key: FFI grade on reference scale anchored by 0, 1, 2, 3 swatches
Text: as §1
as §2, with “assigning an FFI” for “assigning a BI”, “to the” for “to a”, “test samples” for “test sample material”, “the FFI” for “the BI”
Pipette 13 μL of each of the three solutions into the middle of a clean swatch resulting in about a 1 cm diameter of the solution in the middle of the swatch. This will create a sensory scale of three swatches with three different odor levels based on the concentration of the solution pipetted onto the swatch. After drying for 30 minutes in a vented hood, the swatches are wrapped in aluminum foil to prevent odor contamination to the treated swatch. A clean untreated swatch is also included as the lowest anchor point of reference for odor strength on the FFI scale. The FFI reference scale swatches should be used within 0.5 to 12 hours and discarded after 12 hours. The swatches are used as scale anchor points when graders evaluate a test sample(s) and are assigned a Fragrance Fidelity Index (FFI) as show in Table 7.
The perfumer/expert panel is asked to rank order swatches according to a scale between 0 and 3.
The reference swatches represent the 0, 1, 2, and 3 FFIs on the FFI reference scale, Table 9. The expert grader should familiarize them self with the strength of the odor on the FFI reference swatches by sniffing each one starting at 0 (the lowest odor strength) and ending at 3 (the highest odor strength). This should be done prior to evaluating the test sample material treated swatch.
A clean swatch is treated with 13 μL of a known concentration of a test sample material resulting in an about 1 cm of the solution on the clean swatch. Just like the reference swatches, the test sample material swatch is dried in a vented hood for 30 minutes and then wrapped in aluminum foil to prevent contamination. The test material swatches and the FFI reference swatches should be made within 2 hours of each other. The test material swatch must be used within 0.5 to 12 hours and discarded after 12 hours.
At least two perfumers/expert graders are used to assign an FFI grade to a test sample. The perfumer/expert grader smells the test sample swatch by holding that swatch 1 inch from their nose with their nose centered over the area where the test sample was pipetted on to the fabric and then assigns the test sample an FFI grade using the FFI reference scale anchor swatches as references. In cases where the test sample material is graded greater than 3, the test material is not a blocker material or the concentration of the material needs to be lowered and reevaluated to determine if a lower level has a malodor blocker functionality.

[4] = class code letter within Comment Code
[5] = Conc 50 ppm test material on isovaleric acid swatch
[6] = Conc 50 ppm test material on swatch
[7] = Conc 10 ppm test material on isovaleric acid swatch
[8] = Conc 10 ppm test material on swatch
[9] = codes K/L of the Comment Code, Table 1

Structure (SMILES)	Log of liquid dish neat product liquid-air partition coefficient (Comment Code K/L) [1, 4]	BI [2, 5]	FFI [3, 6]	BI [2, 7]	FFI [3, 8]	Comment Code: Log of liquid dish neat product liquid-air partition coefficient ([1]; code letters K, L)	Comment Code: Log of liquid dish neat product liquid-air partition coefficient [1, 9]	Log of liquid dish neat product liquid-air partition coefficient (Comment Code K/L) [1]
CCCCCCCCCCCC(=O)OCC [Material 391]	K (Log of liquid dish neat product liquid-air partition coefficient greater than or equal to −7)	2.2	0.3					
COC(=O)OC1CC/C=C\CCC1 (stereo not shown) [Material 1139]		2.7	1.0	2.0	0			
CC(=O)OCCCCCCC(C)C [Material 204]		2.7	0	2.0	0			
CCCCCCCCCCCO [Undecanol]		2.3	0.8					
C=CC(C)=CCC=C(C)C [Material 524]		2.8	0					
CCOC(=O)OC1C(C)CCC(C)C1C (stereo not shown) [Material 1005]		2.6	0.5					
CC(CCO)CCc1ccccc1 (stereo not shown) [Material 962]		1.7	0.5	2.3	0			
CCCCCCCCCCCCO [Material 174]		2.3	0.5					
CC1(C)CCc2ccc(CCC=O)cc21 [Material 261]	K (Log of liquid dish neat product liquid-air partition coefficient greater than or equal to −7)	1.3	1.3	1.8	0	K (Log of liquid dish neat product liquid-air partition coefficient greater than or equal to −7)		
CC(C)(C)C1CCCCC1 [4-tert-butyl cyclohexane]		2.0	0.3	2.0	0			
O=C1CCC2CCCCC2O1 (stereo not shown) [3,4,4a,5,6,7,8,8a-octahydrochromen-2-one]		2.0	0	2.0	0			
CC(=O)OC1CC2CC1C1CC=CC21 (stereo not shown) [Material 281]	K (Log of liquid dish neat product liquid-air partition coefficient greater than or equal to −7)	2.0	0.5	2.0	0	K (Log of liquid dish neat product liquid-air partition coefficient greater than or equal to −7)		
C=C1CCC2OC2(C)CCC2C1CC2(C)C (stereo not shown) [Material 1148]		2.3	0.5			K (Log of liquid dish neat product liquid-air partition coefficient greater than or equal to −7)	K (Log of liquid dish neat product liquid-air partition coefficient greater than or equal to −7)	
CCC(O)COC1CCCCC1C(C)(C)C (stereo not shown) [Material 677]		2.0	1.8	2.3	0			K (Log of liquid dish neat product liquid-air partition coefficient greater than or equal to −7)
CC1(C)C2CCC3(C2)C1C(=O)CCC3(C)C (stereo not shown) [Material 1149]		2.3	0.8	1.5	0	K (Log of liquid dish neat product liquid-air partition coefficient greater than or equal to −7)	K (Log of liquid dish neat product liquid-air partition coefficient greater than or equal to −7)	
